Values quoted from earlier work, collected in patent US20100081719A1 (priority 2006, published 2010).

Columns and labels:
[1] = tested on: subjects suffering from fibromyalgia syndrome; settings: cited from earlier work; for Subjects with significant clinical improvement: after one month; for Difference from placebo: at three months
patients with FMS = settings: open-label; 11 completing patients; cited from earlier work

SMILES	Subjects with significant clinical improvement [1]	Difference from placebo [1]	Completing patients with a positive response (50% or greater improvement in two different measurements of overall pain) (patients with FMS)	Completing patients with insomnia requiring adjunctive medical therapy (patients with FMS)
CN(C)CCC=C1c2ccccc2C=Cc2ccccc21 [cyclobenzaprine]	12%	no difference	–	–
COc1ccc(C(CN(C)C)C2(O)CCCCC2)cc1 (stereo not drawn) [venlafaxine]	–	–	Six of 11	3 of 11
CN(C)CCC=C1c2ccccc2CCc2ccccc21 [amitriptyline]	21%	no difference	–	–
